Tests used:
[1] = system: A404 cells; assay: RA-induced SMC differentiation of A404 cells, immunocytochemical staining; type: cell-based, mouse
Description: The culture methods for SMC differentiation are outlined in FIG. 1. Cells were trypsinized and plated in a 10 cm dish in α-MEM containing 7.5% FBS and 1 μmol/L all trans-retinoic acid (Sigma, R2625) at a density of 10,000 cells/cm^2 (day 0). The culture medium was replaced once on day 2. On day 3, RA was removed from the culture medium. On day 4, cells were trypsinized and plated in two 10 cm dishes in the medium containing […] puromycin (Clontech). Except otherwise noted, samples for various analyses were prepared from cells treated with puromycin for two days. During puromycin selection, the medium was replaced every day.
Western blot analysis was performed as previously described Regan et al., J. Clin Invest. 2000; 106:1139-47. SM-MHC expression was assessed using a rabbit anti-chicken SM-MHC antibody (1:200,000, a gift from Dr. U. Groschel-Stewart). The specificity of this antibody for mouse MHC isoforms has been thoroughly characterized. The antibody was not reactive with nonmuscle MHCs in Western blotting. Immnunocytochemical staining was performed using Vectastain ABC-AP kit (Vector Laboratories). Antibodies and dilutions used were 1:1000 anti-SM α-actin antibody (Sigma), 1:500 anti-SM-MHC antibody, and 1:1000 anti-neuron-specific β-tubulin antibody (TUJ1, Berkeley Antibody Company).

[2] = system: P19 cells; assay: RA-induced SMC differentiation of parental P19 cells; type: cell-based, mouse; settings: within 4 days
Description: P19 cells were obtained from American Type Culture Collection (CRL-1825). Cells were maintained in α-minimum essential medium (α-MEM, Sigma, M0644) supplemented with 7.5% fetal bovine serum (FBS), 200 μg/ml L-glutamine and penicillin/streptomycin (Lifetechnologies). For transfection and differentiation induction experiments, P19 cell cultures less than 6 passages from the initial culture obtained from ATCC were used. […] Cells were trypsinized and plated in a 10 cm dish in α-MEM containing 7.5% FBS and 1 μmol/L all trans-retinoic acid (Sigma, R2625) at a density of 10,000 cells/cm^2 (day 0). The culture medium was replaced once on day 2. On day 3, RA was removed from the culture medium. On day 4, cells were trypsinized and plated in two 10 cm dishes in the medium containing 0.5 ng/ml puromycin (Clontech). Except otherwise noted, samples for various analyses were prepared from cells treated with puromycin for two days. During puromycin selection, the medium was replaced every day.

[3] = RA-treated A404 cells, after 2-days of puromycin treatment

Row | SMILES | α-actin negative neuron-like cells, fraction of total cell population ([1]; by 4 days after RA treatment, no puromycin) | fraction of total A404 cell population stained positively for SM α-actin ([1]; by 4 days following RA treatment, no puromycin) [%] | cells estimated to differentiate into SMCs [2] | cells positive for TUJ1 [1, 3] [%] | fraction of neuron-like cells [1, 3] | number of neuronal cells ([1]; RA-treated A404 cells, five-days of puromycin treatment) | cells stained positively for both SM α-actin and SM-MHC ([1]; RA-treated A404 cells, following 2 to 5-days treatment with puromycin) [%]
1 | CC1=C(/C=C/C(C)=C/C=C/C(C)=C/C(=O)O)C(C)(C)CCC1 [RA, all trans-retinoic acid] | 10-20% | > 80 | 1-5% | – | – | – | –
2 | COc1ccc(C[C@H](N)C(=O)N[C@H]2[C@@H](O)[C@H](n3cnc4c(N(C)C)ncnc43)O[C@@H]2CO)cc1 [puromycin] | – | – | – | < 0.1 | 5-10% | less than 5% | > 90
